# Laboratory results: a melting point compilation (Tetko et al.; mined from patent text by program, amines drawn as free bases though some values may be those of a salt)
row,melting point,Compound
1,193 to 195 °C,COC(=O)c1ccc(C)c(-n2c(C)cc(OCc3ccccc3CNC(=O)Nc3cc(C(C)(C)C)nn3-c3ccc(Cl)c(O)c3)c(Cl)c2=O)c1
2,176 to 177 °C,Nc1nc(N)c2ncn(COC(CO)CO)c2n1
3,170 to 174 °C,CC1CCc2c(N3CCCC3)ccc3c(=O)c(C(=O)O)cn1c23 (stereo not given)
4,54 to 55 °C,CCOC(=O)c1c(-c2ccccc2)nc(Cl)n1C
5,84.5 to 85.5 °C,N#Cc1cc(Cc2cccc(Cl)c2)ccc1N
6,160 to 163 °C,CC(C)N1C(=O)C2CC2(c2ccc(N)cc2)C1=O (stereo not given)
7,123 to 125 °C,C=CCOc1ccc2c(c1)CCC(=O)N2
8,118 to 119 °C,COc1ccccc1OCCCc1oc(-n2cnc(-c3ccccc3)c2-c2ccccc2)nc1-c1ccc(Cl)cc1
9,34 to 39 °C,FC(F)(F)Sc1ccc(-c2ccc(Cl)cc2)[nH]1
10,144 to 145 °C,CC=CC=NNC(=O)c1cccnc1
11,154 to 163 °C,Cc1ccc(C(=O)Nc2ccc(-n3ccnc3C)cc2C(F)(F)F)cc1Nc1nccc(-c2cccnc2)n1
12,175 to 177 °C,Cn1c(=O)c2c(nc(C=Cc3cccc(N(C(=O)OC(C)(C)C)C(=O)OC(C)(C)C)c3)n2C)n(C)c1=O
13,238 to 240 °C,C=C[C@H]1CN(c2c(F)cc3c(=O)c(C(=O)O)cn4c3c2OC[C@@H]4C)C[C@H]1N
14,94 to 96 °C,O=C1c2c(-c3ccccc3F)noc2CCC1CCCN1CCN(c2ccccn2)CC1 (stereo not given)
15,139 to 140 °C,CCOC(=O)c1c(-c2ccccc2Cl)c2cc(Cl)ccc2n(C)c1=O
16,148 to 149 °C,CCOCn1nccc1C(=O)c1ccc(OCC(=O)O)c(Cl)c1Cl
17,227 to 229 °C,CC(=O)c1ccc(Cc2cn(-c3ccc(F)cc3)c3ncccc3c2=O)cc1
18,126 to 128 °C,CCCCc1nc2c(N)nc3ccccc3c2n1CCCCS(C)=O (stereo not given)
19,97 to 98 °C,O=Cc1cccc(Sc2ccc(O)cc2)c1O
20,177 to 179 °C,CC(=NC(C#N)=C(N)C#N)c1cccs1
21,245 to 256 °C,COC1(N2CCCC2)C=CC=C(c2cnc3[nH]cc(C(=O)C(C)(C)C)c3n2)C1 (stereo not given)
22,188 to 191 °C,O=C(NC(SC(=O)c1ccccc1)C(=O)NC(Cc1c[nH]c2ccccc12)C(=O)O)c1ccccc1 (stereo not given)

row,melting point,Compound
1,92.5 to 95 °C,CC(C)(C)c1cc(SCCC(=O)N2CCN(Cc3ccccc3)CC2)cc(C(C)(C)C)c1O
2,221 to 222 °C,CNC1(c2ccccc2Cl)C(=O)N(S(=O)(=O)c2ccc(NC(=O)c3ccccc3Cl)cc2)c2ccc(Cl)cc21 (stereo not given)
3,226 to 228 °C,c1ccc(-c2nc(-c3ccc4cc(OCc5nnn[nH]5)ccc4c3)cs2)cc1
4,167 to 168 °C,CC(c1ccc(-c2ccccc2)c(F)c1)c1csc(N)n1 (stereo not given)
5,192 to 195 °C,O=C(CCCl)NC12CCCC(C1)C1CCC2C1 (stereo not given)
6,115 to 117 °C,COc1ccc(OCC(O)CNCCNc2c(C)c(=O)n(C)c(=O)n2C)cc1 (stereo not given)
7,168 to 170 °C,Cc1ccc(CN2Cc3cncn3C(c3ccc(C#N)cc3)C2=O)cc1 (stereo not given)
8,120 to 121 °C,Cc1ccc(S(=O)(=O)C[C@H]2CN3C(=O)C[C@@H]3O2)cc1 (racemic)
9,247 to 253 °C,CNc1c(F)c(C)c2c(=O)c(C(=O)O)cn(-c3cc(N)c(F)cc3F)c2c1C
10,123 to 125 °C,CCCCOCCOc1ccc(-c2cnc3c(c2)C=C(C(=O)O)CCCN3CCC)cc1
11,210 to 212 °C,O=[N+]([O-])c1ccccc1Cc1n[nH]c(O)n1
12,208 to 210 °C,Cc1c[nH]c(=O)n(Cc2ccccc2)c1=O
13,160 to 162 °C,COc1ccc2cc(-c3cncn3C)cc(C)c2n1
14,> 230 °C,CC(C)(C)OC(=O)N1c2ncc(Br)cc2C=CC1N (stereo not given)
15,194 to 196 °C,O=C(O)CCc1cccc(Oc2cccc(-c3nnc(Nc4ccc(Cl)c(Cl)c4)s3)c2)c1
16,108 to 109 °C,COc1ccc2c(c1Br)CCC=C2C#N
17,213 to 215 °C,Cc1c(N2CCC(C(N)c3cccnc3)C2)c(F)c(N)c2c(=O)c(C(=O)O)cn(C3CC3F)c12 (stereo not given)
18,234 to 236 °C,CC(=O)OCC(=O)Nc1cccc2c1C(=O)N(C1CCC(=O)NC1=O)C2=O (stereo not given)
19,130 °C,Oc1ccc(CN2CCOCC2)c2cccnc12
20,99.8 to 100 °C,c1ccc(CCCn2c(-c3ccc4c(c3)OCO4)nc3ccccc32)cc1
21,137 to 138 °C,COc1ccc(S(=O)(=O)Nc2ccccc2-c2ccc(F)cc2C(C)O)cc1 (stereo not given)
22,114 to 120 °C,O=C(O)c1cc2ccnc(N(Cc3ccccc3)Cc3ccccc3)c2[nH]1

row,melting point,Compound
1,156 to 158 °C,Cc1ccc(C(=O)NC(NC(=S)Nc2cccnc2)c2ccccc2)cc1 (stereo not given)
2,121 °C,O=C1SC2CCN(Cc3ccccc3Cl)CC2=C1O (stereo not given)
3,238 °C,Cc1cc(-c2ccc(C(F)(F)F)nc2)nc(-c2cccc(-c3ccc(S(N)(=O)=O)s3)c2)n1
4,112 to 114 °C,CCCCCCCCCCCC(=O)NC1C(C)C(c2ccccc2)NC(c2ccccc2)C1C (stereo not given)
5,128 to 129 °C,CC(=O)c1ccc2c(c1)C(=O)C1(CC1)S2
6,179 to 182 °C,CC(=O)NNc1ccc(Cl)c(Cl)c1
7,120 to 121 °C,CCOC(=O)C1CC(=O)c2c(C)c(O)c(C)c(C)c2O1 (stereo not given)
8,88 °C,COCCN(C)C1CCN(c2ccc(N)cc2C#N)CC1
9,157 to 160 °C,Nc1ccc(C(=O)c2ccccc2)c(Br)c1
10,147 to 151 °C,CC(NC(=O)OC(C)(C)C)C(=O)NC(C)C(=O)Nc1ccc2c(Cl)c(OCCBr)oc(=O)c2c1 (stereo not given)
11,192 °C,O=C(O)C[C@H](NC(=O)CNC(=O)c1csc(NC(=O)NCc2ccccc2)n1)C(=O)Nc1ccccc1C(=O)O
12,111 to 113 °C,Cc1nn2ccccc2c1SC#N
13,219 to 220 °C,CCc1n[nH]c2c1nc(-c1cccnc1)c1ccccc12
14,85 to 87 °C,CC(=O)N[C@@H](CCC(=O)O)C(N)=O
15,262 °C,CCCCn1c2ccc(C)cc2c(=O)c2c1cnn2C
16,158 °C,COc1ccc(CN(C(=O)C2CCCc3c(O)cccc32)c2ccc(C(C)C)cc2)cn1 (stereo not given)
17,64 to 66 °C,O=C(c1cc(Cl)ccc1Cl)c1ccccc1I
18,232 °C,CCOC(=O)c1c[nH]c2ccc(OC3CCN(C)CC3)nc12
19,171 to 174 °C,Cc1nc(CC2OC(CO)C(O)C2O)n2nc(Cl)ccc12 (stereo not given)
20,195 to 197 °C,CCc1nc2c3c(c(C(=O)N(C)C)c(-c4ccccc4)c2n1C)CCCO3

row,Compound,melting point
1,Cc1cccc2c1N(CC(=O)N1CC3CCC(CC3)C1)C(=O)C(NC(=O)Nc1cccc(C(=O)OC(C)(C)C)c1)N=C2c1ccccc1F (stereo not given),230 to 232 °C
2,"Cc1c(Sc2ccccc2)c2cccc3c2n1C(CN1CCOCC1)CO3 (single isomer, unassigned; (+))",126 to 128 °C
3,CCc1ncc2n1-c1ccc(Cl)cc1C(c1ccccc1F)=NC2,140 to 143 °C
4,COCc1ccc(CC(C)NCC(O)c2ccc(O)c(CO)c2)cc1 (stereo not given),81 to 92 °C
5,O=C(NC1CCCCC1)NC1N=C(c2ccccc2F)c2ccccc2N(CC(=O)N2CC3CCC(CC3)C2)C1=O (racemic),128 to 130 °C
6,CC#Cc1[nH]c(=O)n2c1CN(C)Cc1cc(F)ccc1-2,219 to 220 °C
